Reference: the NIST ThermoML archive (doi:10.1021/acs.jced.5b00654)

Settings: Fluid (supercritical or subcritical phases); for mass density: Buoyancy - hydrostatic balance with magnetic suspension - one sinker; for viscosity: Vibrating wire viscometry

CCCC [butane]
Settings	mass density [kg/m3]	viscosity [mPa·s]
373.15 K, 392.71 kPa	7.8028	0.009241
373.15 K, 439.63 kPa	8.8018	0.009247
373.15 K, 441.23 kPa	8.8343	0.009243
373.15 K, 750.55 kPa	15.881	0.009298
373.15 K, 1366.4 kPa	33.46	0.009514
373.15 K, 1367.1 kPa	33.484	0.009518
423.11 K, 2532.5 kPa	59.203	0.01157
423.12 K, 2534 kPa	59.251	0.01158
423.13 K, 2535.6 kPa	59.303	0.01157
423.16 K, 195.54 kPa	3.2893	0.0104
423.16 K, 195.59 kPa	3.2893	0.0104
423.17 K, 450.91 kPa	7.7808	0.01045
423.17 K, 452.37 kPa	7.8076	0.01045
423.17 K, 1490.2 kPa	29.071	0.01078
423.17 K, 2272.3 kPa	50.31	0.01129
423.19 K, 654.26 kPa	11.533	0.0105
423.19 K, 1490 kPa	29.063	0.01078
423.19 K, 3006 kPa	79.774	0.01234
423.2 K, 653.48 kPa	11.519	0.01049
423.2 K, 2781.1 kPa	69.059	0.01191
423.2 K, 2781.6 kPa	69.058	0.01191
423.2 K, 3005.8 kPa	79.773	0.01233
423.2 K, 3170.2 kPa	89.28	0.01273
423.24 K, 1016.1 kPa	18.65	0.0106
423.25 K, 1015.9 kPa	18.648	0.01059
423.26 K, 884.12 kPa	15.981	0.01056
423.26 K, 884.38 kPa	15.987	0.01055
423.28 K, 3171.4 kPa	89.266	0.01273
423.47 K, 3280.9 kPa	96.663	0.01307
423.48 K, 3280.8 kPa	96.642	0.01306
424.21 K, 3176.8 kPa	88.401	0.01272
424.21 K, 3177 kPa	88.415	0.01273
428.08 K, 194.36 kPa	3.2322	0.01054
428.09 K, 194.34 kPa	3.2308	0.01053
428.09 K, 5149.9 kPa	360.26	0.04425
428.09 K, 5150.2 kPa	360.25	–
